Source: patent US20250352534A1 (Tesaro, Inc., priority 2022, published 2025)
Values after ≈ are worked out from the molar mass of the structure shown. Where two headings read alike, the source gives them in different places. Values belong to the molecule of their own block, whether it stands above or below them.

Tests used:
[1] = brain penetration in healthy Rhesus macaque monkeys (LC-MS, MALDI IMS); format: in vivo; conditions: for Bulk Brain Homogenate, adjusted free concentration / Bulk Brain Homogenate, total concentration: LC-MS; for Terminal CSF / Terminal Plasma, adjusted free concentration: at necropsy; for Kp uu: male, rhesus monkey, brain homogenate / plasma, oral
Protocol: Pre-dose blood was collected daily and terminal blood, cerebrospinal fluid (CSF), and brain tissue was collected at necropsy. […] Blood, CSF, and bulk homogenates of brain tissue were analyzed by LC-MS bioanalysis.

[2] = system: P-gp (Mdr1-a); experiment: in vivo; conditions: male, rat, brain / plasma, intravenous, P-gp knock-out rat
Protocol: (§1) At least three days prior to the start of the study, six male rats per group (total 24 rats) received surgically implanted femoral vein and carotid artery catheters for infusion of the test molecule and blood sampling, respectively. Doses were filtered prior to administration and the actual dose administered to the animals was quantified. All PK parameters were calculated based on the actual dose administered to each animal. Animals received an intravenous bolus loading dose followed by a constant intravenous infusion to maintain steady state of drug level. At the end of the infusion, animals were euthanized and brain tissues were collected. Tissue homogenates were prepared in PBS (1:4 w/v). LC-MS/MS method was used to quantitate drug concentrations. Tissue homogenate concentrations were corrected for test compound contained in residual plasma in the tissue. The tissue-to-plasma ratio was calculated by dividing corrected tissue concentration by steady-state plasma concentration. […] Data are reported as fraction unbound (Fu).

[3] = system: BCRP (ABCG2); experiment: in vivo; conditions: male, rat, brain / plasma, intravenous, BCRP knock-out rat
Protocol: as §1

[4] = system: P-gp (P-glycoprotein/Mdr1-a) and BCRP (ABCG2); experiment: in vivo
Protocol: as §1

[5] = system: P-gp (Mdr1-a) and BCRP (ABCG2); experiment: in vivo; conditions: male, rat, brain / plasma, intravenous; for Kp: Brain:plasma (Kp) ratio; for Kp uu: Unbound brain:plasma ratio (Kp, uu)
Protocol: as §1

[6] = system: cancer cells with mutant BRCA-1 and BRCA-2; conditions: read-out: inhibition of proliferation CC50; cited from earlier work
[7] = system: MGMT-unmethylated newly-diagnosed glioblastoma
Description: Participants will continue receiving maintenance treatment until progression of disease, unacceptable toxicity or death, withdrawal of consent, loss to follow-up, or study termination by sponsor.
• 1. […] Expansion: Examine progression-free survival rate measured from time of surgery to date of recurrence.

[8] = clinical; conditions: human, oral
Protocol: (§2) The final presurgical dose will be administered 3-5 hours or 8-10 hours before tumor resection. Assignment to time-cohorts will be random. […] In each of the two time-cohorts, tumor PK and PD analyses will be performed at the Ivy Brain Tumor Center.
(§3) For PK analysis, blood, CSF, and brain tumor tissue samples (gadolinium enhancing and non-enhancing) will be collected intraoperatively. Additional blood samples will be obtained on Day 1 pre-dose and on Day 4 (the day of the surgery) at pre-dosing (trough level), 0.5, 1, 2, 4, 6, 9-, 12-, 24-, and 48-hours post-dose.
(§4) Tumor-to-plasma ratios will be calculated. All assays and analyses will be developed, validated, and performed at Ivy Brain Tumor Center.
(§5) Tumor tissue (enhancing and nonenhancing regions), cerebrospinal fluid (CSF), and plasma were collected. […] Evidence of PARP inhibition was assessed by 10 Gy ex vivo irradiation of surgical tissue and quantification of PARylation compared to non-irradiated control tissue.
(§6) Tumor tissue (enhancing and non-enhancing regions), cerebrospinal fluid (CSF), and plasma were collected. […] PARP inhibition was assessed by quantification of PAR induction after 10 Gy ex vivo irradiation in surgical tissue compared to non-irradiated control tissue. A PK ‘trigger’ determined eligibility for the therapeutic phase 2 expansion portion of the study.

[9] = system: PAR (PARP inhibition); conditions: 17/22 patients
Description: For PD analysis, intraoperatively-collected gadolinium-enhancing tumor tissue will be sectioned into 4 similarly-sized tissue portions. Two tissue specimens will be exposed to 10 Gy of IR using a RAD2000 device and two specimens will be sham irradiated (non-irradiated). One pair of sham control and 10 Gy radiated tissue will be fixed in formalin solution for FFPE slides. The other pair will be snap-frozen for PAR ELISA assay.
A ‘functional’ PD assay examining PAR activity in the setting of ex vivo irradiation will serve as a secondary endpoint in this protocol. In the Ivy Center's CLIA-certified PD Core, FFPE embedded tumor tissue from both ex vivo irradiated and non-irradiated to assess changes in PAR, cleaved caspase 3, γH2AX and Ki67 using immunohistochemistry (IHC) assays. Alternatively, ELISA assays to quantify PAR levels will be performed using frozen lysates from the second pair of control and irradiated samples.
Evidence of PARP inhibition was assessed by 10 Gy ex vivo irradiation of surgical tissue and quantification of PARylation compared to non-irradiated control tissue.
PARP inhibition was assessed by quantification of PAR induction after 10 Gy ex vivo irradiation in surgical tissue compared to non-irradiated control tissue.

[10] = in vitro; conditions: rat, brain homogenate
Protocol: as §1

[11] = Phase 0 Arm A tumor pharmacokinetics (LC-MS/MS) in newly-diagnosed GBM patients
Protocol: as §2, §3, §4, §5, §6

[12] = clinical safety, Phase 0 and expansion phase Arm A; conditions: for tolerability: glioblastoma patients
Protocol: as §6

[13] = physchem; conditions: aqueous buffer
[14] = brain penetration in mouse brain metastatic tumor model (LC-MS, MALDI IMS); format: in vivo, mice; conditions: for MALDI IMS Brain Section Median, adjusted free concentration / MALDI IMS Brain Section Median, total concentration / Bulk Brain Homogenate Avg, adjusted free concentration / Bulk Brain Homogenate Avg, total concentration / concentration at 2 h: 2 hr post final dose; for Bulk Brain Homogenate Avg, adjusted free concentration / Bulk Brain Homogenate Avg, total concentration: LC-MS; for concentration at 2 h: plasma, po QD 5 days, niraparib 35 mg/kg, olaparib 50 mg/kg, read-out: Terminal Plasma Avg, total concentration
Description: Female mice (CrTac:NCr-Foxnlnu; 6 w/o) received 2.5E5 luciferase transfected human breast cancer line (MDA 231-BRM2-831) via intracardiac injection. Mice were imaged twice/week using bioluminescence imaging (BLI) to monitor tumor growth. […] Tissue collected between each imaging plane was homogenized for LC-MS bioanalysis.

[15] = system: PARP activity; conditions: read-out: inhibition of PARP activity EC50; whole cell assay; cited from earlier work
[16] = Monkey 1, Day 1, po daily 5 days, niraparib 6 mg/kg, olaparib 10 mg/kg
[17] = Monkey 2, Day 1, po daily 5 days, niraparib 6 mg/kg, olaparib 10 mg/kg
[18] = healthy Rhesus macaque monkeys, five days oral administration
[19] = Unbound brain:plasma ratio (Kp, uu)
[20] = enhancing tumor tissue / plasma
[21] = non-enhancing tumor tissue / plasma
[22] = female, CrTac:NCr-Foxnlnu, mouse, oral, BM mice, from bulk brain homogenate and terminal plasma free concentrations
[23] = female, CrTac:NCr-Foxnlnu, mouse, oral, BM (brain metastases) mice
[24] = female, CrTac:NCr-Foxnlnu, mouse, oral, Control mice

SMILES: NC(=O)c1cccc2cn(-c3ccc([C@@H]4CCCNC4)cc3)nc12 [niraparib, (3S)-3-[4-{7-(aminocarbonyl)-2H-indazol-2-yl}phenyl]piperidine]
MALDI IMS Brain Section Average, adjusted free concentration ([1]; Monkey 1): (10) ng/g
Pre-Dose Plasma, total concentration [1, 16]: BQL
Pre-Dose Plasma, adjusted free concentration ([1]; Monkey 1, Day 2): 10 ng/mL
Pre-Dose Plasma, total concentration ([1]; Monkey 1, Day 2): 28 ng/mL
Pre-Dose Plasma, adjusted free concentration ([1]; Monkey 1, Day 3): 18 ng/mL
Pre-Dose Plasma, total concentration ([1]; Monkey 1, Day 3): 49 ng/mL
Pre-Dose Plasma, adjusted free concentration ([1]; Monkey 1, Day 4): 22 ng/mL
Pre-Dose Plasma, total concentration ([1]; Monkey 1, Day 4): 59 ng/mL
Pre-Dose Plasma, adjusted free concentration ([1]; Monkey 1, Day 5): (26) ng/mL
Pre-Dose Plasma, total concentration ([1]; Monkey 1, Day 5): 72 ng/mL
Bulk Brain Homogenate, adjusted free concentration ([1]; Monkey 1): (14) ng/g
Terminal CSF ([1]; Monkey 1): 9 ng/mL
Terminal Plasma, adjusted free concentration ([1]; Monkey 1): (31) ng/mL
Terminal Plasma, total concentration ([1]; Monkey 1, at necropsy after 5 daily oral doses): 84 ng/mL
MALDI IMS Brain Section Average, adjusted free concentration ([1]; Monkey 2): (25) ng/g
Pre-Dose Plasma, total concentration [1, 17]: BQL
Pre-Dose Plasma, adjusted free concentration ([1]; Monkey 2, Day 2): 21 ng/mL
Pre-Dose Plasma, total concentration ([1]; Monkey 2, Day 2): 58 ng/mL
Pre-Dose Plasma, adjusted free concentration ([1]; Monkey 2, Day 3): 32 ng/mL
Pre-Dose Plasma, total concentration ([1]; Monkey 2, Day 3): 87 ng/mL
Pre-Dose Plasma, adjusted free concentration ([1]; Monkey 2, Day 4): 27 ng/mL
Pre-Dose Plasma, total concentration ([1]; Monkey 2, Day 4): 74 ng/mL
Pre-Dose Plasma, adjusted free concentration ([1]; Monkey 2, Day 5): (24) ng/mL
Pre-Dose Plasma, total concentration ([1]; Monkey 2, Day 5): 66 ng/mL
Bulk Brain Homogenate, adjusted free concentration ([1]; Monkey 2): (29) ng/g
Terminal CSF ([1]; Monkey 2): 25 ng/mL
Terminal Plasma, adjusted free concentration ([1]; Monkey 2): (160) ng/mL
Kp,uu,brain, times higher for niraparib compared to olaparib [1, 18]: 15 ×
detection and distribution in coronal brain sections by MALDI IMS [1, 18]: consistent concentrations distributed throughout the brain parenchyma
Kp uu ([1]; Monkey 2, from bulk brain homogenate and terminal plasma free concentrations, read-out: Kp, uu Brain/Plasma): 0.16
Kp uu ([1]; mean of Monkey 1 and 2, read-out: Mean Kp, uu Brain/Plasma): 0.3
Kp ([2]; Brain:plasma (Kp) ratio): 3.7
Kp uu [2, 19]: 0.87
Kp ([3]; Brain:plasma (Kp) ratio): 0.64
Kp uu [3, 19]: 0.15
increase of brain tissue concentrations ([4]; BCRP knockout rats vs control): < 2 fold
increase of brain tissue concentrations ([4]; Mdr1-a (P-gp) knockout rats vs control, iv bolus plus infusion, steady state): 9 fold
increase of brain tissue concentrations ([4]; Pgp/BCRP double knockout rats vs control): 14 fold
Kp ([5]; P-gp/BCRP double knock-out rat): 6.3
Kp ([5]; control rat): 0.47
Kp uu ([5]; P-gp/BCRP double knock-out rat): 1.5
Kp uu ([5]; control rat): 0.1
CC50 [6]: 10 to 100 nM
outcome of the 6 patients with ≥6 months follow-up ([7]; MGMT-unmethylated PK-responders, niraparib in addition to radiotherapy): four are in remission and two had a recurrence of tumor
PFS6 ([7]; niraparib with concurrent RT then maintenance, 11 patients, median follow-up 8.1 months): 64%
Kp [8, 20]: 7.89
Kp uu [8, 20]: 1.8
Kp [8, 21]: 4.27
Kp uu [8, 21]: 0.8
patients with suppression of PAR levels after ex vivo radiation [9]: 79%
fraction unbound [10]: 0.04
mean unbound concentration in Gd-nonenhancing tumor region ([11]; 200 mg, 3-5 hr cohort 1 (n=6)): 250.8 nM
mean unbound concentration in Gd-nonenhancing tumor region ([11]; 300 mg QD 4 days, 3-5 hr cohort (n=8), interim results): 340.9 nM
mean unbound concentration in Gd-nonenhancing tumor region ([11]; 300 mg QD 4 days, 8-12 hr cohort (n=3)): 331.9 nM
mean unbound concentration in Gd-nonenhancing tumor region ([11]; 300 mg, 3-5 hr cohort 1 (n=20)): 366.2 nM
mean unbound concentration in non-enhancing regions ([11]; 300 or 200 mg QD 4 days, 29 patients, further interim results): 258.2 nM
patients with thrombocytopenia related to niraparib ([12]; 6 initial patients enrolled in phase 2, niraparib with concurrent RT): Five of the 6
patients with Grade 3 treatment-related adverse event (ALT and AST elevation) ([12]; Phase 0, twelve patients, 300 mg QD 4 days): one patient
serious AEs after starting dose lowered to 200 mg ([12]; both phases): no serious AEs were observed thereafter
patients with treatment-related thrombocytopenia ([12]; expansion phase, two patients enrolled): two patients
tolerability [12]: well-tolerated, with low rates of grade 3+ toxicity
tolerability ([12]; listed as Niraparib): generally well-tolerated
thrombocytopenia cases deemed serious and life-threatening ([12]; of the 5 thrombocytopenia cases in phase 2): 3/5
solubility [13]: 700 to 1100 µg/mL (≈ 2180 to 3430 µM)
estimated mean Kp,uu,brain, times higher for niraparib compared to olaparib ([14]; BM mice): 5.6 ×
MALDI IMS Brain Section Median, adjusted free concentration ([14]; BM mice): 80
MALDI IMS Brain Section Median, total concentration ([14]; BM mice): 473
Bulk Brain Homogenate Avg, adjusted free concentration ([14]; BM mice): 91 ng/g
Bulk Brain Homogenate Avg, total concentration ([14]; BM mice): 543 ng/g
MALDI IMS Brain Section Median, adjusted free concentration ([14]; Control mice): 89
MALDI IMS Brain Section Median, total concentration ([14]; Control mice): 532
Bulk Brain Homogenate Avg, adjusted free concentration ([14]; Control mice): 111 ng/g
Bulk Brain Homogenate Avg, total concentration ([14]; Control mice): 658 ng/g
estimated mean Kp,uu,brain, times higher for niraparib compared to olaparib ([14]; control mice): 3.0 ×
Kp uu at 2 h post final dose [14, 22]: 0.18
Kp uu at 2 h ([14]; female, CrTac:NCr-Foxnlnu, mouse, oral, Control mice, from bulk brain homogenate and terminal plasma free concentrations): 0.18
concentration at 2 h [14, 23]: 2540 ng/mL
concentration at 2 h [14, 24]: 3100 ng/mL
distribution in coronal brain sections by MALDI IMS ([14]; mice administered niraparib): consistent concentrations distributed throughout the brain parenchyma with locally higher concentrations detected from tumor regions
EC50 [15]: 4 nM

MALDI IMS Brain Section Average, total concentration ([1]; Monkey 1): BLQ
Pre-Dose Plasma, total concentration [1, 16]: BQL
Pre-Dose Plasma, adjusted free concentration ([1]; Monkey 1, Day 2): 8 ng/mL
Pre-Dose Plasma, total concentration ([1]; Monkey 1, Day 2): 27 ng/mL
Pre-Dose Plasma, adjusted free concentration ([1]; Monkey 1, Day 3): 8 ng/mL
Pre-Dose Plasma, total concentration ([1]; Monkey 1, Day 3): 26 ng/mL
Pre-Dose Plasma, adjusted free concentration ([1]; Monkey 1, Day 4): 10 ng/mL
Pre-Dose Plasma, total concentration ([1]; Monkey 1, Day 4): 33 ng/mL
Pre-Dose Plasma, adjusted free concentration ([1]; Monkey 1, Day 5): (10) ng/mL
Pre-Dose Plasma, total concentration ([1]; Monkey 1, Day 5): 33 ng/mL
Bulk Brain Homogenate, adjusted free concentration ([1]; Monkey 1): (2) ng/g
Bulk Brain Homogenate, total concentration ([1]; Monkey 1): 12 ng/g
Kp, uu Brain/Plasma ([1]; Monkey 1, from bulk brain homogenate and terminal plasma free concentrations): 0.02
MALDI IMS Brain Section Average, total concentration ([1]; Monkey 2): BLQ
Pre-Dose Plasma, total concentration [1, 17]: BQL
Pre-Dose Plasma, adjusted free concentration ([1]; Monkey 2, Day 2): 16 ng/mL
Pre-Dose Plasma, total concentration ([1]; Monkey 2, Day 2): 51 ng/mL
Pre-Dose Plasma, adjusted free concentration ([1]; Monkey 2, Day 3): 5 ng/mL
Pre-Dose Plasma, total concentration ([1]; Monkey 2, Day 3): 17 ng/mL
Pre-Dose Plasma, adjusted free concentration ([1]; Monkey 2, Day 4): 16 ng/mL
Pre-Dose Plasma, total concentration ([1]; Monkey 2, Day 4): 53 ng/mL
Pre-Dose Plasma, adjusted free concentration ([1]; Monkey 2, Day 5): (14) ng/mL
Pre-Dose Plasma, total concentration ([1]; Monkey 2, Day 5): 45 ng/mL
Bulk Brain Homogenate, adjusted free concentration ([1]; Monkey 2): (2) ng/g
Bulk Brain Homogenate, total concentration ([1]; Monkey 2): 11 ng/g
Kp, uu Brain/Plasma ([1]; Monkey 2, from bulk brain homogenate and terminal plasma free concentrations): 0.03
detection and distribution in coronal brain sections by MALDI IMS [1, 18]: not detected
Mean Kp, uu Brain/Plasma ([1]; mean of Monkey 1 and 2): 0.02
Bulk Brain Homogenate Avg, adjusted free concentration ([14]; BM mice): 2 ng/g
Bulk Brain Homogenate Avg, total concentration ([14]; BM mice): 11 ng/g
Bulk Brain Homogenate Avg, adjusted free concentration ([14]; Control mice): 2 ng/g
Bulk Brain Homogenate Avg, total concentration ([14]; Control mice): 12 ng/g
Kp, uu Brain ([14]; Control mice, from bulk brain homogenate and terminal plasma free concentrations): 0.02
Kp uu at 2 h post final dose [14, 22]: 0.03
concentration at 2 h [14, 23]: 254 ng/mL
concentration at 2 h [14, 24]: 322 ng/mL
SMILES: O=C(c1cc(Cc2n[nH]c(=O)c3ccccc23)ccc1F)N1CCN(C(=O)C2CC2)CC1 [olaparib]
Terminal CSF ([1]; Monkey 1): 13 ng/mL
Terminal Plasma, adjusted free concentration ([1]; Monkey 1): (99) ng/mL
Terminal CSF ([1]; Monkey 2): 6 ng/mL
Terminal Plasma, adjusted free concentration ([1]; Monkey 2): (78) ng/mL
